Experimental data reported in patent publication US9994570B2, “Bridged diazepane orexin receptor antagonists” (MERCK SHARP & DOHME CORP., priority 2014, dated 2018).

Key:
human orexin-2 receptor = target: T1, human orexin-2 receptor (Homo sapiens, UniProt O43614); test: FLIPR Ca2+ flux assay, OX2R; assay type: cell-based; conditions: for IC50: CHO cells expressing the human orexin-2 receptor, agonist 70 pM Ala-6,12 orexin-A; for Fold Selective: OX1R FLIPR / OX2R FLIPR
T1 construct: expressed in transfected cells; host or cells: CHO cells (grown under G418 selection)
T1 sequence (O43614 1-444): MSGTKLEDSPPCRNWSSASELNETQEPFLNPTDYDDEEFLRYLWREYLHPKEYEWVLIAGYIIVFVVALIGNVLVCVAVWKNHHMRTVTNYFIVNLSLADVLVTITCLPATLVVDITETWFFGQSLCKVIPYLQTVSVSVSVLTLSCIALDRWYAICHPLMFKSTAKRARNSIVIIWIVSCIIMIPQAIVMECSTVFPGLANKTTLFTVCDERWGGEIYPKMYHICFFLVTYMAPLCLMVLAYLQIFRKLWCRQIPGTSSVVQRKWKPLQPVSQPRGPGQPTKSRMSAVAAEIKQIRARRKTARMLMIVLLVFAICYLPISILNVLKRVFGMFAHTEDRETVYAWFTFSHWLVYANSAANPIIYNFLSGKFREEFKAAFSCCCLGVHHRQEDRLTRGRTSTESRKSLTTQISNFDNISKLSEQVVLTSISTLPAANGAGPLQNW
Procedure: (§1) The utility of the compounds in accordance with the present invention as orexin receptor OX1R and/or OX2R antagonists may be readily determined without undue experimentation by methodology well known in the art, including the “FLIPR Ca^2+ Flux Assay” (Okumura et al., Biochem. Biophys. Res. Comm. 280:976-981, 2001). In a typical experiment the OX1 and OX2 receptor antagonistic activity of the compounds of the present invention was determined in accordance with the following experimental method. For intracellular calcium measurements, Chinese hamster ovary (CHO) cells expressing the rat orexin-1 receptor or the human orexin-2 receptor, are grown in Iscove's modified DMEM containing 2 mM L-glutamine, […], 1% hypoxanthine-thymidine supplement, 100 U/ml penicillin, 100 μg/ml streptomycin and 10% heat-inactivated fetal calf serum (FCS). The cells are seeded at 20,000 cells/well into Becton-Dickinson black 384-well clear bottom sterile plates coated with poly-D-lysine. All reagents were from GIBCO-Invitrogen Corp. The seeded plates are incubated overnight at 37° C. and 5% CO2. Ala-6,12 human orexin-A as the agonist is prepared as a 1 mM stock solution in 1% bovine serum albumin (BSA) and diluted in assay buffer (HBSS containing 20 mM HEPES, 0.1% BSA and 2.5 mM probenecid, pH7.4) for use in the assay at a final concentration of 70 pM. Test compounds are prepared as 10 mM stock solution in DMSO, then diluted in 384-well plates, first in DMSO, then assay buffer. On the day of the assay, cells are washed 3 times with 100 μl assay buffer and then incubated for 60 min (37° C., 5% CO2) in 60 μl assay buffer containing 1 μM Fluo-4AM ester, 0.02% pluronic acid, and 1% BSA. The dye loading solution is then aspirated and cells are washed 3 times with 100 μl assay buffer. 30 μl of that same buffer is left in each well. Within the Fluorescent Imaging Plate Reader (FLIPR, Molecular Devices), test compounds are added to the plate in a volume of 25 μl, incubated for 5 min and finally 25 μl of agonist is added. Fluorescence is measured for each well at 1 second intervals for 5 minutes and the height of each fluorescence peak is compared to the height of the fluorescence peak induced by 70 pM Ala-6,12 orexin-A with buffer in place of antagonist. For each antagonist, IC50 value (the concentration of compound needed to inhibit 50% of the agonist response) is determined. Alternatively, compound potency can be assessed by a radioligand binding assay (described in Bergman et. al. Bioorg. Med. Chem. Lett. 2008, 18, 1425-1430) in which the inhibition constant (Ki) is determined in membranes prepared from CHO cells expressing either the OX1 or OX2 receptor. The intrinsic orexin receptor antagonist activity of a compound which may be used in the present invention may be determined by these assays.

rat orexin-1 receptor = target: T2, rat orexin-1 receptor (Rattus norvegicus, UniProt P56718); test: FLIPR Ca2+ flux assay, OX1R; assay type: cell-based; conditions: CHO cells expressing the rat orexin-1 receptor; agonist 70 pM Ala-6,12 orexin-A
T2 construct: expressed in transfected cells; host or cells: CHO cells (grown under G418 selection)
T2 sequence (P56718 1-416): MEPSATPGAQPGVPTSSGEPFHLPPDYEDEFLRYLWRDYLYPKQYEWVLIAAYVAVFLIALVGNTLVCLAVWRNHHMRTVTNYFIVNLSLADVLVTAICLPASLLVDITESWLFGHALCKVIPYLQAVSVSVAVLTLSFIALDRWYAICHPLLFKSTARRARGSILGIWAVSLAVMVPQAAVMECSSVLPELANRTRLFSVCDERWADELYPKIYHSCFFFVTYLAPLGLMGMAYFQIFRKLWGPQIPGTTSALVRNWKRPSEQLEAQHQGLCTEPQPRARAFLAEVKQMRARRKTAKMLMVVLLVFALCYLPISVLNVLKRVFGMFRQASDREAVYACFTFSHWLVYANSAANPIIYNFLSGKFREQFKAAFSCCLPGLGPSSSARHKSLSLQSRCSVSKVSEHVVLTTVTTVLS
Procedure: as §1

| IC50 (human orexin-2 receptor) [nM] | Fold Selective (human orexin-2 receptor) | IC50 (rat orexin-1 receptor) [nM] | SMILES |
| --- | --- | --- | --- |
| 36 | 44 | 1600 | Cc1cc(C)nc(N2CC3CC2CN(C(=O)c2ccccc2-n2ncnn2)C3)n1 (stereo not drawn) [Example 19, 6-(4,6-dimethylpyrimidin-2-yl)-3-{[2-(2H-tetrazol-2-yl)phenyl]carbonyl}-3,6-diazabicyclo[3.2.1]octane] |
| 81 | >123 | > 10000 | Cc1cc(C#N)nc(N2CC3CC2CN(C(=O)c2cccnc2C2CC2)C3)n1 (stereo not drawn) [Example 5, 2-(3-(2-cyclopropylnicotinoyl)-3,6-diazabicyclo[3.2.1]octan-6-yl)-6-methylpyrimidine-4-carbonitrile] |
| 90 | >111 | > 10000 | Cc1cc(C)nc(N2CC3CC2CN(C(=O)c2cccnc2OCC(C)O)C3)n1 (stereo not drawn) [Example 45, 1-[(3-{[6-(4,6-dimethylpyrimidin-2-yl)-3,6-diazabicyclo[3.2.1]oct-3-yl]carbonyl}pyridin-2-yl)oxy]propan-2-ol] |
| 60 | >167 | > 10000 | Cc1cc(C)nc(N2CC3CC2CN(C(=O)c2nccnc2OC(C)C)C3)n1 (stereo not drawn) [Example 52, 6-(4,6-dimethylpyrimidin-2-yl)-3-{[3-(1-methylethoxy)pyrazin-2-yl]carbonyl}-3,6-diazabicyclo[3.2.1]octane] |
| 15 | 58 | 872 | Cc1cc(C)nc(N2CC3CC2CN(C(=O)c2ccccc2C2(F)CC2)C3)n1 (stereo not drawn) [Example 18, 6-(4,6-dimethylpyrimidin-2-yl)-3-{[2-(1-fluorocyclopropyl)-phenyl]carbonyl}-3,6-diazabicyclo[3.2.1]octane] |
| 18 | 178 | 3210 | Cc1cc(C#N)nc(N2CC3CC2CN(C(=O)c2ccccc2OCC(F)(F)F)C3)n1 (stereo not drawn) [Example 3, 6-methyl-2-(3-(2-(2,2,2-trifluoroethoxy)benzoyl)-3,6-diazabicyclo[3.2.1]octan-6-yl)pyrimidine-4-carbonitrile] |
| 44 | 91 | 3990 | COCCc1ccccc1C(=O)N1CC2CC(C1)N(c1nc(C)cc(C)n1)C2 (stereo not drawn) [Example 33, 6-(4,6-dimethylpyrimidin-2-yl)-3-{[2-(2-methoxyethyl)-phenyl]carbonyl}-3,6-diazabicyclo[3.2.1]octane] |
| 36 | >278 | > 10000 | Cc1cc(C)nc(N2CC3CC2CN(C(=O)c2nccnc2OCC(F)(F)F)C3)n1 (stereo not drawn) [Example 50, 6-(4,6-dimethylpyrimidin-2-yl)-3-{[3-(2,2,2-trifluoroethoxy)pyrazin-2-yl]carbonyl}-3,6-diazabicyclo[3.2.1]octane] |
| 15 | 139 | 2090 | Cc1cc(C)nc(N2CC3CC2CN(C(=O)c2ccccc2CC(F)F)C3)n1 (stereo not drawn) [Example 36, 3-{[2-(2,2-difluoroethyl)phenyl]carbonyl}-6-(4,6-dimethylpyrimidin-2-yl)-3,6-diazabicyclo[3.2.1]octane] |
| 13 | 80 | 1040 | Cc1cc(C)nc(N2CC3CC2CN(C(=O)c2cccnc2OCC(F)(F)F)C3)n1 (stereo not drawn) [Example 22, 6-(4,6-dimethylpyrimidin-2-yl)-3-{[2-(2,2,2-trifluoroethoxy)pyridin-3-yl]carbonyl}-3,6-diazabicyclo[3.2.1]octane] |
| 15 | 122 | 1830 | Cc1cc(C)nc(N2CC3CC2CN(C(=O)c2cccnc2OCC(F)F)C3)n1 (stereo not drawn) [Example 9, (2-(2,2-difluoroethoxy)pyridin-3-yl)(6-(4,6-dimethylpyrimidin-2-yl)-3,6-diazabicyclo[3.2.1]octan-3-yl)methanone] |
| 103 | >97 | > 10000 | Cc1cc(C)nc(N2CC3CC2CN(C(=O)c2cccnc2-c2noc(C)n2)C3)n1 (stereo not drawn) [Example 23, 6-(4,6-dimethylpyrimidin-2-yl)-3-{[2-(5-methyl-1,2,4-oxadiazol-3-yl)pyridin-3-yl]carbonyl}-3,6-diazabicyclo[3.2.1]octane] |
| 10 | 114 | 1140 | Cc1cc(C)nc(N2CC3CC2CN(C(=O)c2ccccc2OCC(F)(F)F)C3)n1 (stereo not drawn) [Example 26, 6-(4,6-dimethylpyrimidin-2-yl)-3-{[2-(2,2,2-trifluoroethoxy)-phenyl]carbonyl}-3,6-diazabicyclo[3.2.1]octane] |
| 41 | 87 | 3550 | COc1ccc(C(=O)N2CC3CC(C2)N(c2nc(C)cc(C)n2)C3)c(C2CC2)n1 (stereo not drawn) [Example 13, 3-[(2-cyclopropyl-6-methoxypyridin-3-yl)carbonyl]-6-(4,6-dimethylpyrimidin-2-yl)-3,6-diazabicyclo[3.2.1]octane] |
| 27 | 92 | 2470 | CSc1ccccc1C(=O)N1CC2CC(C1)N(c1nc(C)cc(C)n1)C2 (stereo not drawn) [Example 17, 6-(4,6-dimethylpyrimidin-2-yl)-3-{[2-(methylsulfanyl)-phenyl]carbonyl}-3,6-diazabicyclo[3.2.1]octane] |
| 46 | 74 | 3410 | COCc1ccccc1C(=O)N1CC2CC(C1)N(c1nc(C)cc(C)n1)C2 (stereo not drawn) [Example 10, (6-(4,6-dimethylpyrimidin-2-yl)-3,6-diazabicyclo[3.2.1]octan-3-yl)(2-(methoxymethyl)phenyl)methanone] |
| 23 | 47 | 1080 | Cc1cc(C)nc(N2CC3CC2CN(C(=O)c2cccnc2OC2CCCC2)C3)n1 (stereo not drawn) [Example 38] |
| 117 | >85 | > 10000 | COc1ccc(C(=O)N2CC3CC(C2)N(c2nc(C)cc(C)n2)C3)c(-n2nccn2)n1 (stereo not drawn) [Example 30, 6-(4,6-dimethylpyrimidin-2-yl)-3-{[6-methoxy-2-(2H-1,2,3-triazol-2-yl)pyridin-3-yl]carbonyl}-3,6-diazabicyclo[3.2.1]octane] |
| 26 | 56 | 1450 | Cc1cc(C)nc(N2CC3CC2CN(C(=O)c2ccc(F)cc2C2CC2)C3)n1 (stereo not drawn) [Example 14, 3-[(2-cyclopropyl-4-fluorophenyl)carbonyl]-6-(4,6-dimethylpyrimidin-2-yl)-3,6-diazabicyclo[3.2.1]octane] |
| 24 | 112 | 2690 | Cc1cc(C)nc(N2CC3CC2CN(C(=O)c2nccnc2OCC(F)(F)C(F)F)C3)n1 (stereo not drawn) [Example 51, (6-(4,6-dimethylpyrimidin-2-yl)-3,6-diazabicyclo[3.2.1]octan-3-yl)(3-(2,2,3,3-tetrafluoropropoxy)pyrazin-2-yl)methanone] |
